target: T1, PKB-PIF fusion protein (Homo sapiens, UniProt P31751); experiment: Measurement of PKB kinase inhibitory activity (IC50), radiometric filter plate assay; type: biochemical; details: 0.6 nM enzyme, 30 μM ATP, AKTide-2T substrate, 20 minutes
T1 construct: PIF (fusion partner); made in house
Text: The inhibition of protein kinase B (PKB) activity by compounds can be determined essentially as described by Andjelkovic et al. (Mol. Cell. Biol. 19, 5061-5072 (1999)) but using a fusion protein described as PKB-PIF and described in full by Yang et al (Nature Structural Biology 9, 940-944 (2002)). The protein is purified and activated with PDK1 as described by Yang et al. The peptide AKTide-2T (H-A-R-K-R-E-R-T-Y-S-F-G-H-H-A-OH) obtained from Calbiochem (#123900) is used as a substrate. A final concentration of 0.6 nM enzyme is used in a buffer that includes 20 mM MOPS pH 7.2, 30 μM ATP/γ^33P-ATP and 25 µM substrate. Compounds are added in DMSO solution to a final DMSO concentration of 2.5%. The reaction is allowed to proceed for 20 minutes before addition of excess orthophosphoric acid to quench activity. The reaction mixture is transferred to a phosphocellulose filter plate where the peptide binds and the unused ATP is washed away. After washing, scintillant is added and the incorporated activity measured by scintillation counting.
The % inhibition of the PKB activity is calculated and plotted in order to determine the concentration of test compound required to inhibit 50% of the PKB activity (IC50).

T1 sequence (P31751 with tags, fused parts or gaps limits assumed): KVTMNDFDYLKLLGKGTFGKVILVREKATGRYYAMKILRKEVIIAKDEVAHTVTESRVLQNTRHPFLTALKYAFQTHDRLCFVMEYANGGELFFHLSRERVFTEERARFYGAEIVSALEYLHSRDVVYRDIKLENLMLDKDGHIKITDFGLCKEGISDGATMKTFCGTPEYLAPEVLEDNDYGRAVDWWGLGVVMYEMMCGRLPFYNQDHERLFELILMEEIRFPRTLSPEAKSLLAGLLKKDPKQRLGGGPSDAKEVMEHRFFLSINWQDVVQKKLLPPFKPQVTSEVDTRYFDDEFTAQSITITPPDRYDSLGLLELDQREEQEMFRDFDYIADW

Row | Structure (SMILES) | IC50
1 | Cc1ccc2nc(C3(N)CCN(c4ncnc5[nH]ccc45)CC3)[nH]c2c1 [Example 5, 4-(6-Methyl-1H-benzoimidazol-2-yl)-1-(7H-pyrrolo[2,3-d]pyrimidin-4-yl)-piperidin-4-ylamine] | < 0.1 µM
2 | COc1cccc2[nH]c(C3(N)CCN(c4ncnc5[nH]ccc45)CC3)nc12 [Example 9, 4-(4-Methoxy-1H-benzoimidazol-2-yl)-1-(7H-pyrrolo[2,3-d]pyrimidin-4-yl)-piperidin-4-ylamine] | < 0.1 µM
3 | NC1(c2nc3cnccc3[nH]2)CCN(c2ncnc3[nH]ccc23)CC1 [Example 10] | < 0.1 µM
4 | NC1(c2nc3ccccc3[nH]2)CCN(c2ccnc3[nH]ccc23)CC1 [Example 19, 4-(1H-benzoimidazol-2-yl)-1-(1H-pyrrolo[2,3-b]pyridin-4-yl)-piperidin-4-ylamine] | < 0.1 µM
5 | NC1(c2nc3ccc(Cl)cc3[nH]2)CCN(c2ccnc3[nH]ccc23)CC1 [Example 20, 4-(6-chloro-1H-benzoimidazol-2-yl)-1-(1H-pyrrolo[2,3-b]pyridin-4-yl)-piperidin-4-ylamine] | < 0.1 µM

test system: phosphorylation of Serine-9 residue in Glycogen Synthase Kinase-3beta as surrogate marker of cellular PKB (Akt) activity; experiment: In vitro MDA-MB-468 human breast adenocarcinoma GSK-3 phosphorylation assay; type: cell-based; details: MDA-MB-468 cells, 2 hours compound incubation, mean IC50, read-out: Cell pGSK3b IC50
Text: This assay determines the ability of test compounds to inhibit phosphorylation of Serine-9 residue in Glycogen Synthase Kinase-3beta (GSK-313) as a surrogate marker of cellular PKB (Akt) activity, as assessed using Acumen Explorer Fluorescent Plate-Reader technology. A MDA-MB-468 human breast adenocarcinoma cell line (LGC Promochem, Teddington, Middlesex, UK, Catalogue No. HTB-132) was routinely maintained in Dulbecco's modified Eagle's growth medium (DMEM; Invitrogen Limited, Paisley, UK Catalogue No. 11966-025) containing 10% heat-inactivated foetal calf serum (FCS; Sigma, Poole, Dorset, UK, Catalogue No. F0392) and 1% L-glutamine (Gibco, Catalogue No. 25030-024) at 37° C. with 5% CO2 up to a confluency of 70-90%.
For the phosphorylation assay, the cells were detached from the culture flask using Trypsin-EDTA (Invitrogen Limited, Catalogue No. 25300-062) and seeded into the wells of a black transparent-bottom Corning Costar Polystyrene 96 well plate (Fisher Scientific UK, Loughborough, Leicestershire, UK; Catalogue No. 3904 and DPS-130-020K) at a density of 5000 cells per well in 100 μl of complete growth media. The cells were incubated overnight at 37° C. with 5% CO2 to allow them to adhere.
On day 2, the cells were treated with test compounds and incubated for 2 hours at 37° C. with 5% CO2. Test compounds were prepared as 10mM stock solutions in DMSO and dosed directly to required concentration into test wells using non-contact (acoustic dispensing of multiple 2.5 nl droplets directly into assay wells) ECHO dosing technology (Labcyte Inc Sunnyvale, Calif., USA). Each plate contained control wells without test compound.
20 μl of fixing buffer (Phosphate Buffered Saline (PBS) containing 10% formaldehyde; Sigma; Catalogue No. F1635) was then added to each well to give a final well concentration 1.6%. Plates were then incubated for 30 minutes at room temperature prior to the fixative being removed. Each well was washed once with 250 μl of PBS and then 50 μl PBS added to each well. PBS was then aspirated and cells permeabilised and blocked by incubating each well with 50 μl of permeabilisation/blocking buffer (PBS containing 0.5% Tween 20 (Sigma; Catalogue No. P5927) and 5% Marvel Milk Powder (Andrews Pharmacy Ltd, Macclesfield, Cheshire, UK; Catalogue No. APC100199)) for 1 hour at room temperature prior to staining.
Following removal of Perm/Block buffer, 50 μl of primary anti-phospho-GSK-3β antibody (Cell Signalling Technology (New England Biolabs (Uk) Ltd.), Hitchin, Hertfordshire, UK; Catalogue No.9336 diluted 1:400 in Blocking buffer (PBS containing 5% Marvel and 0.05% Tween/Polysorbate 20) was added to each well and incubated overnight at 4° C.
Each well was washed three times in 250 μl of wash buffer (PBS containing 0.05% polysorbate 20), and cells incubated for 1 hour at room temperature with 50 μl of secondary fluorescently-labelled anti-rabbit Alexa Fluor 488 antibody (Molecular Probes, Invitrogen Limited, Catalogue No. A11008) diluted 1:750 in blocking buffer. Plates were washed three times in 250 μl of wash buffer and stored containing 50 μl of PBS at 4° C. until required.
Plates were analysed using an Acumen Explorer Plate-reader to quantify level of fluorescent signal that represents quantity of phosphorylated-GSK-313.
IC50 calculation—IC50 is the concentration of compound required to give 50% effect over the range of activity affected by the compound, between maximum (no compound) and minimum (excess level of compound) response control data. IC50 values were determined by fitting background corrected, dose response assay data to a 4 parameter logistic curve fit equation model with the minimum response set to zero. This was done using an in-house developed algorithm within the Origin graphing software package (OriginLab Corporation, Northampton, Mass., USA). […]

Row | Structure (SMILES) | IC50
6 | CS(=O)(=O)c1cccc(-c2cccc3[nH]c(C4(N)CCN(c5ncnc6[nH]ccc56)CC4)nc23)c1 [Example 95, 4-[4-(3-methylsulfonylphenyl)-1H-benzimidazol-2-yl]-1-(7H-pyrrolo[3,2-e]pyrimidin-4-yl)piperidin-4-amine] | 0.049 µM
7 | NC1(c2nc3c(-c4cncc(F)c4)cccc3[nH]2)CCN(c2ncnc3[nH]ccc23)CC1 [Example 96, 4-[4-(5-fluoropyridin-3-yl)-1H-benzimidazol-2-yl]-1-(7H-pyrrolo[3,2-e]pyrimidin-4-yl)piperidin-4-amine] | 0.044 µM
8 | Cc1ccc2[nH]c(C3(CN)CCN(c4ncnc5[nH]ccc45)CC3)nc2c1 [Example 97, (4-(5-methyl-1H-benzo[d]imidazol-2-yl)-1-(7H-pyrrolo[2,3-d]pyrimidin-4-yl)piperidin-4-yl)methanamine] | 0.085 µM
9 | Cc1ccc2[nH]c(C3(CN)CCN(c4ncnc5[nH]cc(Br)c45)CC3)nc2c1 [Example 98, (1-(5-bromo-7H-pyrrolo[2,3-d]pyrimidin-4-yl)-4-(5-methyl-1H-benzo[d]imidazol-2-yl)piperidin-4-yl)methanamine] | 0.18 µM
10 | NCC1(c2nc3c(-c4ccccc4)cccc3[nH]2)CCN(c2ncnc3[nH]ccc23)CC1 [Example 99, (4-(4-phenyl-1H-benzo[d]imidazol-2-yl)-1-(7H-pyrrolo[2,3-d]pyrimidin-4-yl)piperidin-4-yl)methanamine] | 0.015 µM
11 | Cn1cc(-c2cccc3[nH]c(C4(CN)CCN(c5ncnc6[nH]ccc56)CC4)nc23)cn1 [Example 100] | 0.014 µM
12 | NCC1(c2nc3c(C4CCOC4)cccc3[nH]2)CCN(c2ncnc3[nH]ccc23)CC1 (stereo not drawn) [Example 101, [4-[4-(oxolan-3-yl)-1H-benzimidazol-2-yl]-1-(7H-pyrrolo[3,2-e]pyrimidin-4-yl)piperidin-4-yl]methanamine] | 0.0093 µM
13 | NC1(c2nc3c(-c4ccccc4)cccc3[nH]2)CCN(c2ncnc3[nH]cnc23)CC1 [Example 103, 4-(4-Phenyl-1H-benzimidazol-2-yl)-1-(9H-purin-6-yl)piperidin-4-amine] | 0.033 µM
14 | COc1ccc(-c2cccc3[nH]c(C4(N)CCN(c5ncnc6[nH]cnc56)CC4)nc23)cc1 [Example 104, 4-[4-(4-methoxyphenyl)-1H-benzimidazol-2-yl]-1-(9H-purin-6-yl)piperidin-4-amine] | 0.12 µM
15 | CS(=O)(=O)c1ccc(-c2cccc3[nH]c(C4(N)CCN(c5ncnc6[nH]cnc56)CC4)nc23)cc1 [Example 105, 4-[4-(4-methylsulfonylphenyl)-1H-benzimidazol-2-yl]-1-(9H-purin-6-yl)piperidin-4-amine] | 0.2 µM
16 | NC1(c2nc3c(-c4ccoc4)cccc3[nH]2)CCN(c2ncnc3[nH]cnc23)CC1 [Example 106, 4-(4-furan-3-yl-1H-benzimidazol-2-yl)-1-(9H-purin-6-yl)piperidin-4-amine] | 0.052 µM
17 | NC1(c2nc3c(-c4ccccc4)cccc3[nH]2)CCN(c2ncnc3[nH]ncc23)CC1 [Example 108, 4(4-phenyl-1H-benzo[d]imidazol-2-yl)-1-(1H-pyrazolo[3,4-d]pyrimidin-4-yl)piperidin-4-amine] | 0.35 µM
18 | COc1ccc(-c2cccc3[nH]c(C4(N)CCN(c5ncnc6[nH]ncc56)CC4)nc23)cc1 [Example 109, 4-[4-(4-methoxyphenyl)-1H-benzo[d]imidazol-2-yl)-1-(1H-pyrazolo[3,4-d]pyrimidin-4-yl)piperidin-4-amine] | 0.65 µM
19 | CS(=O)(=O)c1ccc(-c2cccc3[nH]c(C4(N)CCN(c5ncnc6[nH]ncc56)CC4)nc23)cc1 [Example 110, 4-[4-(4-methylsulfonylphenyl)-1H-benzo[d]imidazol-2-yl)-1-(1H-pyrazolo[3,4-d]pyrimidin-4-yl)piperidin-4-amine] | 0.49 µM
20 | NC1(c2nc3c(-c4ccoc4)cccc3[nH]2)CCN(c2ncnc3[nH]ncc23)CC1 [Example 111, 4-(4-furan-3-yl-1H-benzo[d]imidazol-2-yl)-1-(1H-pyrazolo[3,4-d]pyrimidin-4-yl)piperidin-4-amine] | 0.11 µM
21 | CS(=O)(=O)c1ccccc1-c1cccc2nc(C3(N)CCN(c4ncnc5[nH]ccc45)CC3)[nH]c12 [Example 112, 4-[7-(2-methylsulfonylphenyl)-1H-benzimidazol-2-yl]-1-(7H-pyrrolo[3,2-e]pyrimidin-4-yl)piperidin-4-amine] | 0.3 µM
22 | NCc1cc(-c2cccc3[nH]c(C4(N)CCN(c5ncnc6[nH]ccc56)CC4)nc23)ccc1F [Example 113, 4-(4-(3-(aminomethyl)-4-fluorophenyl)-1H-benzo[d]imidazol-2-yl)-1-(7H-pyrrolo[2,3-d]pyrimidin-4-yl)piperidin-4-amine] | 0.038 µM
23 | CS(=O)(=O)Cc1cccc(-c2cccc3[nH]c(C4(N)CCN(c5ncnc6[nH]ccc56)CC4)nc23)c1 [Example 115, 4-(4-(3-(methylsulfonylmethyl)phenyl)-1H-benzo[d]imidazol-2-yl)-1-(7H-pyrrolo[2,3-d]pyrimidin-4-yl)piperidin-4-amine] | 0.27 µM
24 | CS(=O)(=O)Cc1ccccc1-c1cccc2[nH]c(C3(N)CCN(c4ncnc5[nH]ccc45)CC3)nc12 [Example 116, 4-(4-(2-(methylsulfonylmethyl)phenyl)-1H-benzo[d]imidazol-2-yl)-1-(7H-pyrrolo[2,3-d]pyrimidin-4-yl)piperidin-4-amine] | 0.047 µM
